From patent US20070225278A1, “Methods for treating cognitive and other disorders” (priority 2006, published 2007) come the findings set out here.

One data set has as its system male Sprague-Dawley rats. Format: in vivo, rat. The settings on record: for Sexual dysfunction (MED mg/kg): male, Sprague-Dawley, rat, in vivo, 30 min; for reduction of the number of penile erections relative to vehicle treated animals: sexually experienced male rats, female stimuli present, i.p. once daily. The source says:
In summary, male rats were allowed access to sexually receptive females during a single overnight mating session and then administered antidepressants with varying degrees of clinically reported sexual deficits. […] Animals
Intact male Sprague-Dawley rats (Charles River Laboratories) arrived at 7 weeks of age and were allowed to habituate for one week prior to sexual experience or behavioral testing. Rats were group housed in same-sex colony rooms with food and water provided ad libitum. All animals were maintained under a 12:12 light-dark cycle (lights on at 6:00 am) with behavioral experiments performed during the light hours beginning at noon.
Ovariectomized female Long-Evans rats (Charles River Laboratories) were individually housed and brought into behavioral estrus weekly by subcutaneous injection of 25 ug 17-B estradiol benzoate in 0.1 ml corn oil 48 hours prior to testing, followed by subcutaneous administration of 2.5 mg progesterone in 0.1 ml corn oil 4 to 6 hours before testing.
For subjects assigned into the sexually experienced group, the following procedures were performed. Individual male rats were placed into the home cage of a a sexually receptive female for overnight mating sessions. The cage was a Plexiglas cage measuring 10×12 inches, with food and water ad libitum. Mating pairs were randomly assigned. […] Following overnight mating sessions, males and females were separated from each other and placed back into same-sex colony rooms where they were group-housed until the time of behavioral testing.
To determine the effects of female stimuli on non-contact penile erections, sexually receptive females were brought into the testing room 30 minutes prior to the start of behavioral testing in order to provide female visual, olfactory, and auditory stimuli for males. The testing arena for observing non-contact penile erections in male rats consisted of an empty rat size Plexiglas cage (11×10 inches) containing no bedding, with an aerated plastic lid and a total ceiling height of 12 inches. […] A penile erection consisted of observation of the male rat in a hunched position grasping the penis with the forepaws and followed by a series of pelvic thrusts. The number of penile erections were quantified over a 30 minute observation session.
Following sexual experience (as described above), male subjects (n=8 per group) were administered either 10 mg/kg/day fluoxetine or saline vehicle for 14 days. On the 14th day, fluoxetine treatment was co-administered with either saline or apomorphine (0.1-0.3 mg/kg, sc) or yohimbine (0.1-0.3 mg/kg, sc) or sildenafil (0.1-0.3 mg/kg, sc) in separate experiments. Non-contact penile erections were evaluated in 30 minute test sessions in the presence of sexually receptive female rats.
Fluoxetine HCl (Tocris), desipramine (Sigma, St. Louis, Mo.) and bupropion HCl (Toronto Research Chemicals, Canada) were dissolved in 0.9% sterile saline vehicle and injected intraperitoneally (i.p.) once daily. On the day of behavioral testing, antidepressants were administered intraperitoneally (i.p.) as one hour pretreatments. For reversal experiments, apomorphine (Sigma, St. Louis, Mo.), yohimbine (Sigma, St. Louis, Mo.) or sildenafil (Toronto Research Chemicals, Canada) were used. Apomorphine was dissolved in 0.9% sterile saline vehicle and injected subcutaneously (s.c.). Yohimbine was dissolved in dH2O facilitated with 1N HCl, followed by addition of 1N NaOH for titration (pH=7) and administered intraperitoneally (i.p.). Sildenafil was dissolved in 0.9% sterile saline vehicle and administered intraperitoneally (i.p.). With the exception of fluoxetine which was administered in a dose volume of 2 ml/kg, all other test compounds were administered in a dose volume of 1 ml/kg. On the day of behavioral testing, both fluoxetine and the reversal agent (apomorphine, yohimbine, or sildenafil) were co-administered as 0 minute pretreatments. […]

Data set [1] in a line: Antidepressant-like effects (MED), Table 2. The format is in vivo. The following applies: minimal effective dose. The source says:
Table 2, below, summarizes the dose at which antidepressant-like effects are observed, the dose at which sexual dysfunction occurs, and the therapeutic window.

Data set [2] has as its system male Sprague Dawley CD rats. Put plainly: Reversal of MK-801 induced deficits in PPI. The following applies: data generated within the applicant's lab, doses not given.

Turning to `CNCCC(Oc1ccc(C(F)(F)F)cc1)c1ccccc1` (stereo not shown) [Fluoxetine, fluoxetine], in the data set with male Sprague-Dawley rats, the “Sexual dysfunction (MED mg/kg)” value worked out at 10 mg/kg and the “reduction of the number of penile erections relative to vehicle treated animals” value came out at 72%. For the same compound, the “Antidepressant-like effects (MED mg/kg)” value in data set [1] was 10 mg/kg.

`Cc1nc2n(c(=O)c1CCN1CCC(c3noc4cc(F)ccc34)CC1)CCCC2` [risperidone, reference compound]: the “attenuation of MK-801 induced deficit in PPI (reference antipsychotics)” value in data set [2] was “will attenuate”.

With `CNCCCN1c2ccccc2CCc2ccccc21` [Desipramine, desipramine], in the data set with male Sprague-Dawley rats, the “Sexual dysfunction (MED mg/kg)” value is reported as 10 mg/kg and the “reduction of the number of penile erections relative to vehicle treated animals” value worked out at 43%. The “Antidepressant-like effects (MED mg/kg)” value in data set [1] is 10 mg/kg.

As for `CC(NC(C)(C)C)C(=O)c1cccc(Cl)c1` (stereo not shown) [Bupropion, bupropion], in the data set on male Sprague-Dawley rats, the “Sexual dysfunction (MED mg/kg)” value is >20 mg/kg and the “reduction of the number of penile erections relative to vehicle treated animals” value amounted to 9%. In addition, the “Antidepressant-like effects (MED mg/kg)” value in data set [1] is 20 mg/kg.
